Results published in patent publication US20240173419A1, “CDK2 DEGRADERS AND USES THEREOF” (Kymera Therapeutics, Inc., priority 2022, published 2024).

Biological target: T1, CDK2 (Homo sapiens, UniProt P24941)
T1 construct: endogenous in cells; host or cells: MKN1 cells
Assay: CDK2 degradation in MKN1 cells (AlphaLISA)
Format: cell-based
Conditions: 14 h incubation; for DC50: read-out: CDK2 degradation 14 h: Mean external-Abs DC50
In short: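 MKN1 cells (2e4/well) treated 14 h at 37° C with 11-point 1:5 dilutions (0.001 nM-10 μM, 0.1% DMSO). CDK2 in lysates quantified by AlphaLISA, no-cell background subtracted; DC50 from four-parameter logistic fit.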

Row | SMILES | CDK2 degradation 14 h: Average Dmax % | DC50
1 | Cc1cc(S(=O)(=O)NC2CCN(CC3(C)CN(c4ccc(C5CCC(=O)NC5=O)c(Cl)c4)C3)CC2)ccc1Nc1ncc(C(F)(F)F)c(N2CCC[C@](C)(O)C2)n1 (stereo partly drawn) [I-910] | B (B (>50% -75%)) | 100 to 500 nM
2 | Cc1cc(S(=O)(=O)NC2CCC(CN3CCN(c4cccc(C5CCC(=O)NC5=O)c4)CC3)CC2)ccc1Nc1ncc(C(F)(F)F)c(N2CCCC(C)(O)C2)n1 (stereo not drawn) [I-929] | C (C (>25% -50%)) | > 1000 nM
3 | Cc1cc(S(=O)(=O)NC2CCC(CN3CCN(c4cccc(C5CCC(=O)NC5=O)c4)CC3)CC2)ccc1Nc1ncc2c(n1)N(C1CCCC(O)C1)C(=O)C21CC1 (stereo not drawn) [I-938] | C (C (>25% -50%)) | > 1000 nM
4 | Cc1cc(S(=O)(=O)NC2CCC(CN3CCN(c4ccc(C5CCC(=O)NC5=O)cc4F)CC3C)CC2)ccc1Nc1ncc2c(n1)N(C1CCCC(O)C1)C(=O)C21CC1 (stereo not drawn) [I-966] | A (A (>75% o)) | < 100 nM
5 | Cn1nc(N2CCC(=O)NC2=O)c2ccc(C3CCN(Cc4cccc(S(=O)(=O)N5CCC(Nc6ncc7ccc(=O)n(C8CCCC8)c7n6)CC5)c4)CC3)cc21 [I-968] | A (A (>75% o)) | < 100 nM
6 | Cc1cc(S(=O)(=O)N2CCC(CN(C)C3CCN(c4cccc5c4n(C)c(=O)n5C4CCC(=O)NC4=O)CC3)CC2)ccc1Nc1nc(OC2CCCCC2)c2nc[nH]c2n1 (stereo not drawn) [I-970] | A (A (>75% o)) | < 100 nM
7 | Cc1cc(S(=O)(=O)NCCOCCOCCCc2ccc3c(c2)n(C)c(=O)n3C2CCC(=O)NC2=O)ccc1Nc1ncc2c(n1)N(C1CCCC1)C(=O)C21CC1 (stereo not drawn) [I-972] | B (B (>50% -75%)) | < 100 nM
8 | Cc1cc(S(=O)(=O)NCCOCCOCCOCCOCCCc2ccc3c(c2)n(C)c(=O)n3C2CCC(=O)NC2=O)ccc1Nc1ncc2ccc(=O)n(C3CCCC3)c2n1 (stereo not drawn) [I-973] | A (A (>75% o)) | < 100 nM
9 | Cc1cc(S(=O)(=O)NCCOCCOCCOCCOCCCc2ccc3c(c2)n(C)c(=O)n3C2CCC(=O)NC2=O)ccc1Nc1ncc2c(n1)N(C1CCCC1)C(=O)C21CC1 (stereo not drawn) [I-974] | A (A (>75% o)) | < 100 nM
10 | Cc1cc(S(=O)(=O)NCCCCCCc2cccc3c2n(C)c(=O)n3C2CCC(=O)NC2=O)ccc1Nc1ncc2cc(C(F)F)c(=O)n(C3CCCC3(C)O)c2n1 (stereo not drawn) [I-976] | B (B (>50% -75%)) | < 100 nM
11 | CC1CC(NS(=O)(=O)c2ccc(Nc3ncc(C(F)(F)F)c(N4CCCC(C)(O)C4)n3)c(F)c2)CCN1CC1CCN(c2ccc(C3CCC(=O)NC3=O)c(F)c2)CC1 (stereo not drawn) [I-1037] | A (A (>75% o)) | < 100 nM
12 | Cn1c(=O)n(C2CCC(=O)NC2=O)c2ccc(N3CCC(CN4CCC(NS(=O)(=O)c5ccc(Nc6ncc(C(F)(F)F)c(N7CCCC(C)(O)C7)n6)c(F)c5)C(F)C4)CC3)cc21 (stereo not drawn) [I-1039] | A (A (>75% o)) | < 100 nM
13 | CC1(O)CCCN(c2nc(Nc3ccc(S(=O)(=O)N4CCN(CC5CCC(Oc6cccc(C7CCC(=O)NC7=O)c6)CC5)CC4)cc3C(F)F)ncc2C(F)(F)F)C1 (stereo not drawn) [I-1043] | D (D (<25%)) | > 1000 nM
14 | CC1(O)CCCN(c2nc(Nc3ccc(S(=O)(=O)N4CCN(CC5CCC(Oc6ccc(C7CCC(=O)NC7=O)cc6)CC5)CC4)cc3C(F)F)ncc2C(F)(F)F)C1 (stereo not drawn) [I-1044] | D (D (<25%)) | > 1000 nM
15 | CN(CC1CCC(NS(=O)(=O)c2ccc(Nc3ncc(C(F)(F)F)c(N4CCCC(C)(O)C4)n3)c(C(F)F)c2)CC1)C1CN(c2ccc(C3CCC(=O)NC3=O)c(F)c2)C1 (stereo not drawn) [I-1045] | B (B (>50% -75%)) | 100 to 500 nM
16 | CC1CN(CC2CCN(c3ccc(C4CCC(=O)NC4=O)c(F)c3)CC2)CCC1NS(=O)(=O)c1ccc(Nc2ncc(C(F)(F)F)c(N3CCCC(C)(O)C3)n2)c(F)c1 (stereo not drawn) [I-1046] | A (A (>75% o)) | < 100 nM
17 | Cc1cc(S(=O)(=O)NC2CCC(CN3CCN(c4ccc(C5CCC(=O)NC5=O)c(Cl)c4)CC3)CC2)ncc1Nc1ncc(C(F)(F)F)c(N2CCCC(C)(O)C2)n1 (stereo not drawn) [I-1047] | A (A (>75% o)) | < 100 nM

Next, values leading:

Row | CDK2 degradation 14 h: Average Dmax % | DC50 | SMILES
18 | A (A (>75% o)) | < 100 nM | Cc1cc(S(=O)(=O)NC(C)COC2CCC(CN3CCN(c4ccc5c(c4F)n(C)c(=O)n5C4CCC(=O)NC4=O)CC3)CC2)ccc1Nc1ncc(C(F)(F)F)c(N2CCC(C(C)(C)O)C2)n1 (stereo not drawn) [I-858]
19 | A (A (>75% o)) | < 100 nM | Cc1cc(S(=O)(=O)NC2CC3(C2)CN(CC2CN(c4ccc(C5CCC(=O)NC5=O)c(Cl)c4)C2)C3)ccc1Nc1ncc(C(F)(F)F)c(N2CCCC(C)(O)C2)n1 (stereo not drawn) [I-928]
20 | A (A (>75% o)) | < 100 nM | Cc1cc(S(=O)(=O)NC2CCC(N3CCN(c4ccc(C5CCC(=O)NC5=O)c(Cl)c4)CC3)CC2)ccc1Nc1ncc(C(F)(F)F)c(N2CCCC(C)(O)C2)n1 (stereo not drawn) [I-930]
21 | A (A (>75% o)) | < 100 nM | Cc1cc(S(=O)(=O)NC2CCC(CN3CCN(c4c(F)cc(C5CCC(=O)NC5=O)cc4F)CC3)CC2)ccc1Nc1ncc(C(F)(F)F)c(N2CCCC(C)(O)C2)n1 (stereo not drawn) [I-935]
22 | B (B (>50% -75%)) | < 100 nM | Cc1cc(S(=O)(=O)NC2CCC(CCN3CCN(c4ccc(C5CCC(=O)NC5=O)cc4F)CC3)CC2)ccc1Nc1ncc2c(n1)N(C1CCCC(O)C1)C(=O)C21CC1 (stereo not drawn) [I-939]
23 | A (A (>75% o)) | < 100 nM | Cc1cc(S(=O)(=O)NC2CCC(CN3CCN(c4cc(C)c(C5CCC(=O)NC5=O)cc4F)CC3)CC2)ccc1Nc1ncc(C(F)(F)F)c(N2CCCC(C)(O)C2)n1 (stereo not drawn) [I-940]
24 | A (A (>75% o)) | < 100 nM | Cc1cc(S(=O)(=O)NC2CCC(CN3CCN(c4c(F)cc(C5CCC(=O)NC5=O)cc4Cl)CC3)CC2)ccc1Nc1ncc(C(F)(F)F)c(N2CCCC(C)(O)C2)n1 (stereo not drawn) [I-941]
25 | A (A (>75% o)) | < 100 nM | Cc1cc(S(=O)(=O)NC2CCC(OC3CCN(c4ccc(C5CCC(=O)NC5=O)cc4F)CC3)CC2)ccc1Nc1ncc(C(F)(F)F)c(N2CCCC(C)(O)C2)n1 (stereo not drawn) [I-942]
26 | A (A (>75% o)) | < 100 nM | CC1(O)CCCN(c2nc(Nc3ccc(S(=O)(=O)NC4CCC(CN5CCN(c6ccc(C7CCC(=O)NC7=O)c(F)c6)CC5)CC4)cc3)ncc2C(F)(F)F)C1 (stereo not drawn) [I-943]
27 | A (A (>75% o)) | < 100 nM | CC1(O)CCCN(c2nc(Nc3ccc(S(=O)(=O)NC4CCC(CN5CCN(c6ccc(C7CCC(=O)NC7=O)c(F)c6)CC5)CC4)cc3C(F)F)ncc2C(F)(F)F)C1 (stereo not drawn) [I-944]
28 | A (A (>75% o)) | < 100 nM | Cc1cc(S(=O)(=O)NC2CCC(CN3CCN(c4ccc5c(c4)n(C4CC4)c(=O)n5C4CCC(=O)NC4=O)CC3)CC2)ccc1Nc1ncc2c(n1)N(C1CCCC(O)C1)C(=O)C21CC1 (stereo not drawn) [I-947]
29 | A (A (>75% o)) | < 100 nM | Cc1cc(S(=O)(=O)NC2CCN(CC3CCN(c4c(F)ccc5c4n(C)c(=O)n5C4CCC(=O)NC4=O)CC3)CC2F)ccc1Nc1ncc2c(n1)N(C1CCCC(O)C1)C(=O)C21CC1 (stereo not drawn) [I-949]
30 | A (A (>75% o)) | < 100 nM | O=C1CCC(c2ccc(N3CCC(CN4CCC(NS(=O)(=O)c5ccc(Nc6ncc7c(n6)N(C6CCCC(O)C6)C(=O)C76CC6)c(F)c5)C(F)C4)CC3)cc2F)C(=O)N1 (stereo not drawn) [I-950]
